Source: patent publication US11407736B2 (priority 2019, dated 2022)

Legend:
RIPK1 = RIPK1 (Homo sapiens (Human), UniProt Q13546); test: RIPK1 ADP-Glo biochemical kinase assay; conditions: read-out: RIPK1 ADP-Glo Kinase (IC50)
Method: The final reaction volume was 5.0ul.
Adding 5 μl of ADP-Glo™ terminated the reaction.

L929 cells = test: L929 cell necroptosis assay (TNFa + zVAD, CellTiter-Glo); assay type: cell-based, murine; conditions: Mus musculus, L929, L929 cells, TNFa + zVAD; read-out: L929-CTG-recovery, L929, TNFa + zVAD (IC50)
Method in brief: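 Murine L929 cells, plated 18 h beforehand at 10K cells/well in RPMI 1640 with 10% FBS, were switched to medium containing 40 uM zVAD-fmk and given compound from 4-fold serial dilutions. Viability after 18 h of TNFa stimulation at 37° C was read by CellTiter-Glo luminescence.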

U937 cells = test: U937 cell necroptosis assay (TNFa + zVAD, CellTiter-Glo); assay type: cell-based, human; conditions: Homo sapiens, U-937, U937 cells, TNFa + zVAD; read-out: U937 Zvad TNF CTG Recovery, U937, TNFa + zVAD (IC50)
Method in brief: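 Human U937 and murine L929 cells in RPMI 1640/10% FBS were pre-incubated 1 h at 37 °C with serially diluted compound plus zVAD-fmk (U937 plated with 60 uM, L929 medium with 40 uM), then stimulated with 2 ng/mL TNFa (final). Viability read by CellTiter-Glo luminescence after 18 h.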

Chain of RIPK1 (Q13546 whole entry, species assumed): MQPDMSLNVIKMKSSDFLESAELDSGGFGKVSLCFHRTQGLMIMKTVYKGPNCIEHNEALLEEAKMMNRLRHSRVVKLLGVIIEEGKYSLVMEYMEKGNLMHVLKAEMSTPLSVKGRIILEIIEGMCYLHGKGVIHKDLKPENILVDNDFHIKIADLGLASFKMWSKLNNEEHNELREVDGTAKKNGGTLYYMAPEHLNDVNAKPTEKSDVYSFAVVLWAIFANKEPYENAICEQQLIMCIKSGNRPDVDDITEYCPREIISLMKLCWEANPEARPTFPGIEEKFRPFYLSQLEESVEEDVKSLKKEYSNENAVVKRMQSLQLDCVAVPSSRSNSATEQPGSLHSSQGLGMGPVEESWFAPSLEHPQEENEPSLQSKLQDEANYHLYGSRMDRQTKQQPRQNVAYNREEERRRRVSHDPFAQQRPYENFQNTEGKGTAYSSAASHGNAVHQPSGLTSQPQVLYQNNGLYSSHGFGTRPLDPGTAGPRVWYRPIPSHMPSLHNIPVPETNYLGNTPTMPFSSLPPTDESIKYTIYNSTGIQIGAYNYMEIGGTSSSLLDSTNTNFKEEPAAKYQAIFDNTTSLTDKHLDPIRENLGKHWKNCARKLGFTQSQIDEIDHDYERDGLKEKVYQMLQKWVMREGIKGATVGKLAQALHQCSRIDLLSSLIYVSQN

Row | IC50 (RIPK1) | SMILES | IC50 (L929 cells) | IC50 (U937 cells)
1 | 41.5 nM | CN1C(=O)[C@@H](NC(=O)c2ncn(Cc3ccccc3)n2)COc2cc(CN3CCn4nc(C(F)(F)F)nc4C3)ccc21 [Compound I-67, (S)-1-benzyl-N-(5-methyl-4-oxo-8-((2-(trifluoromethyl)-5,6-dihydro-[1,2,4]triazolo[1,5-a]pyrazin-7(8H)-yl)methyl)-2,3,4,5-tetrahydrobenzo[b][1,4]oxazepin-3-yl)-1H-1,2,4-triazole-3-carboxamide] | 8.5 nM | 15.2 nM
2 | 1160 nM | CN1C(=O)[C@H](NC(=O)c2n[nH]c(Cc3ccccc3)n2)COc2ccc(C#CC(C)(C)O)cc21 [Compound I-70, (R)-5-benzyl-N-(7-(3-hydroxy-3-methylbut-1-yn-1-yl)-5-methyl-4-oxo-2,3,4,5-tetrahydrobenzo[b][1,4]oxazepin-3-yl)-1H-1,2,4-triazole-3-carboxamide] | 19.5 nM | 188 nM
3 | 21.7 nM | CN1C(=O)[C@@H](NC(=O)c2nnc(Cc3ccccc3)o2)COc2ccc(C#CC(C)(C)O)cc21 [Compound I-71, (S)-5-benzyl-N-(7-(3-hydroxy-3-methylbut-1-yn-1-yl)-5-methyl-4-oxo-2,3,4,5-tetrahydrobenzo[b][1,4]oxazepin-3-yl)-1,3,4-oxadiazole-2-carboxamide] | 0.2 nM | 0.9 nM
4 | 42.9 nM | CN1C(=O)[C@@H](NC(=O)c2n[nH]c(Cc3ccccc3)n2)COc2cc(C#CC3(O)COC3)ccc21 [Compound I-73, (S)-5-benzyl-N-(8-((3-hydroxyoxetan-3-yl)ethynyl)-5-methyl-4-oxo-2,3,4,5-tetrahydrobenzo[b][1,4]oxazepin-3-yl)-1H-1,2,4-triazole-3-carboxamide] | 2.7 nM | 11.7 nM
5 | 51.8 nM | CN1C(=O)[C@@H](NC(=O)c2n[nH]c(Cc3ccccc3)n2)COc2ccc(C#C[C@@]3(O)CO[C@@H]4[C@@H](OC(=O)c5ccccc5)CO[C@@H]43)cc21 [Compound I-74, (3S,3aR,6R,6aS)-6-(((S)-3-(5-benzyl-1H-1,2,4-triazole-3-carboxamido)-5-methyl-4-oxo-2,3,4,5-tetrahydrobenzo[b][1,4]oxazepin-7-yl)ethynyl)-6-hydroxyhexahydrofuro[3,2-b]furan-3-yl benzoate] | 0.2 nM | 1.4 nM
6 | 54.6 nM | CN1C(=O)[C@@H](NC(=O)c2n[nH]c(Cc3ccccc3)n2)COc2ccc(C#C[C@@]3(O)CO[C@@H]4[C@@H](O)CO[C@@H]43)cc21 [Compound I-75, 5-benzyl-N—((S)-7-(((3R,3aS,6S,6aR)-3,6-dihydroxyhexahydrofuro[3,2-b]furan-3-yl)ethynyl)-5-methyl-4-oxo-2,3,4,5-tetrahydrobenzo[b][1,4]oxazepin-3-yl)-1H-1,2,4-triazole-3-carboxamide] | 1.4 nM | 8.3 nM
7 | 44.9 nM | COC(=O)C(C)(C)C#Cc1ccc2c(c1)N(C)C(=O)[C@@H](NC(=O)c1n[nH]c(Cc3ccccc3)n1)CO2 [Compound I-76, methyl (S)-4-(3-(5-benzyl-1H-1,2,4-triazole-3-carboxamido)-5-methyl-4-oxo-2,3,4,5-tetrahydrobenzo[b][1,4]oxazepin-7-yl)-2,2-dimethylbut-3-ynoate] | 2.4 nM | 18.1 nM
8 | 32.7 nM | CN1C(=O)[C@@H](NC(=O)c2ccn(Cc3ccccc3)n2)COc2ccc(C#CC(C)(C)O)cc21 [Compound I-77, (S)-1-benzyl-N-(7-(3-hydroxy-3-methylbut-1-yn-1-yl)-5-methyl-4-oxo-2,3,4,5-tetrahydrobenzo[b][1,4]oxazepin-3-yl)-1H-pyrazole-3-carboxamide] | 0.3 nM | 2.8 nM
9 | 33.4 nM | CN1C(=O)[C@@H](NC(=O)c2n[nH]c(Cc3cccc(F)c3)n2)COc2ccc(C#CC(C)(C)O)cc21 [Compound I-78, (S)-5-(3-fluorobenzyl)-N-(7-(3-hydroxy-3-methylbut-1-yn-1-yl)-5-methyl-4-oxo-2,3,4,5-tetrahydrobenzo[b][1,4]oxazepin-3-yl)-1H-1,2,4-triazole-3-carboxamide] | 0.9 nM | 2.5 nM
10 | 34.7 nM | CN1C(=O)[C@@H](NC(=O)c2n[nH]c(Cc3ccc(F)cc3)n2)COc2ccc(C#CC(C)(C)O)cc21 [Compound I-79, (S)-5-(4-fluorobenzyl)-N-(7-(3-hydroxy-3-methylbut-1-yn-1-yl)-5-methyl-4-oxo-2,3,4,5-tetrahydrobenzo[b][1,4]oxazepin-3-yl)-1H-1,2,4-triazole-3-carboxamide] | 0.8 nM | 5.1 nM
11 | 20.6 nM | CN1C(=O)[C@@H](NC(=O)c2n[nH]c(Cc3ccccc3F)n2)COc2ccc(C#CC(C)(C)O)cc21 [Compound I-80, (S)-5-(2-fluorobenzyl)-N-(7-(3-hydroxy-3-methylbut-1-yn-1-yl)-5-methyl-4-oxo-2,3,4,5-tetrahydrobenzo[b][1,4]oxazepin-3-yl)-1H-1,2,4-triazole-3-carboxamide] | 0.7 nM | 2.7 nM
12 | 19 nM | C#Cc1ccc2c(c1)N(C)C(=O)[C@@H](NC(=O)c1n[nH]c(Cc3ccccc3)n1)CO2 [Compound I-81, (S)-5-benzyl-N-(7-ethynyl-5-methyl-4-oxo-2,3,4,5-tetrahydrobenzo[b][1,4]oxazepin-3-yl)-1H-1,2,4-triazole-3-carboxamide] | 1.2 nM | 4.2 nM
13 | 25.5 nM | Cc1ccccc1Cn1cnc(C(=O)N[C@H]2COc3ccc(C#CC(C)(C)O)cc3N(C)C2=O)n1 [Compound I-82, (S)—N-(7-(3-hydroxy-3-methylbut-1-yn-1-yl)-5-methyl-4-oxo-2,3,4,5-tetrahydrobenzo[b][1,4]oxazepin-3-yl)-1-(2-methylbenzyl)-1H-1,2,4-triazole-3-carboxamide] | 0.3 nM | 1.9 nM
14 | 66.4 nM | CN1C(=O)[C@@H](NC(=O)c2ncn(Cc3ccc(-c4ccccc4)cc3)n2)COc2ccc(C#CC(C)(C)O)cc21 [Compound I-83, (S)-1-([1,1′-biphenyl]-4-ylmethyl)-N-(7-(3-hydroxy-3-methylbut-1-yn-1-yl)-5-methyl-4-oxo-2,3,4,5-tetrahydrobenzo[b][1,4]oxazepin-3-yl)-1H-1,2,4-triazole-3-carboxamide] | 0.1 nM | 1 nM
15 | 44.1 nM | Cc1cccc(C)c1Cn1cnc(C(=O)N[C@H]2COc3ccc(C#CC(C)(C)O)cc3N(C)C2=O)n1 [Compound I-84, (S)-1-(2,6-dimethylbenzyl)-N-(7-(3-hydroxy-3-methylbut-1-yn-1-yl)-5-methyl-4-oxo-2,3,4,5-tetrahydrobenzo[b][1,4]oxazepin-3-yl)-1H-1,2,4-triazole-3-carboxamide] | 12.2 nM | 56.3 nM
16 | 42.3 nM | CC(C)Cn1cnc(C(=O)N[C@H]2COc3ccc(C#CC(C)(C)O)cc3N(C)C2=O)n1 [Compound I-85, (S)—N-(7-(3-hydroxy-3-methylbut-1-yn-1-yl)-5-methyl-4-oxo-2,3,4,5-tetrahydrobenzo[b][1,4]oxazepin-3-yl)-1-isobutyl-1H-1,2,4-triazole-3-carboxamide] | 0.6 nM | 3.3 nM
17 | 616 nM | CCN(C(=O)c1n[nH]c(Cc2ccccc2)n1)[C@H]1COc2ccc(C#CC(C)(C)O)cc2N(C)C1=O [Compound I-86, (S)-5-benzyl-N-ethyl-N-(7-(3-hydroxy-3-methylbut-1-yn-1-yl)-5-methyl-4-oxo-2,3,4,5-tetrahydrobenzo[b][1,4]oxazepin-3-yl)-1H-1,2,4-triazole-3-carboxamide] | 0.6 nM | 4.1 nM
18 | 18.7 nM | CN1C(=O)[C@@H](NC(=O)c2cc(Cc3ccccc3)on2)COc2ccc(C#CC(C)(C)O)cc21 [Compound I-87, (S)-5-benzyl-N-(7-(3-hydroxy-3-methylbut-1-yn-1-yl)-5-methyl-4-oxo-2,3,4,5-tetrahydrobenzo[b][1,4]oxazepin-3-yl)isoxazole-3-carboxamide] | 29.2 nM | 138 nM
19 | 73.8 nM | CN1C(=O)[C@@H](NC(=O)c2n[nH]c(Cc3ccccc3)n2)COc2ccc(C#Cc3ccc4c(c3)CNCC4)cc21 [Compound I-88, (S)-5-benzyl-N-(5-methyl-4-oxo-7-((1,2,3,4-tetrahydroisoquinolin-7-yl)ethynyl)-2,3,4,5-tetrahydrobenzo[b][1,4]oxazepin-3-yl)-1H-1,2,4-triazole-3-carboxamide] | 0.0976 nM | 0.7 nM
20 | 52.7 nM | CN1C(=O)[C@@H](NC(=O)c2n[nH]c(Cc3ccccc3F)n2)COc2ccc(C#CC(C)(C)C)cc21 [Compound I-89, (S)—N-(7-(3,3-dimethylbut-1-yn-1-yl)-5-methyl-4-oxo-2,3,4,5-tetrahydrobenzo[b][1,4]oxazepin-3-yl)-5-(2-fluorobenzyl)-1H-1,2,4-triazole-3-carboxamide] | 0.7 nM | 4.5 nM
21 | 365 nM | Cc1cccc(C)c1Cn1cnc(C(=O)N[C@H]2COc3ccc(C#CC(C)(C)C)cc3N(C)C2=O)n1 [Compound I-90, (S)-1-(2,6-dimethylbenzyl)-N-(7-(3,3-dimethylbut-1-yn-1-yl)-5-methyl-4-oxo-2,3,4,5-tetrahydrobenzo[b][1,4]oxazepin-3-yl)-1H-1,2,4-triazole-3-carboxamide] | 4.6 nM | 9.1 nM
